# In ChEMBL document CHEMBL4177748, “Synthesis, structure-activity relationships, and mechanistic studies of 5-arylazo-tropolone derivatives as novel xanthine oxidase (XO) inhibitors” (Bioorg Med Chem, 2018):
# Biological target: Xanthine dehydrogenase/oxidase (Bos taurus, UniProt P80457)
# Assay: Inhibition of bovine milk xanthine oxidase using xanthine as substrate pretreated for 15 mins followed by substrate addition measured after 8 mins
# Details: not given; call rule not given here
# Xanthine dehydrogenase/oxidase, sequence (P80457 whole entry): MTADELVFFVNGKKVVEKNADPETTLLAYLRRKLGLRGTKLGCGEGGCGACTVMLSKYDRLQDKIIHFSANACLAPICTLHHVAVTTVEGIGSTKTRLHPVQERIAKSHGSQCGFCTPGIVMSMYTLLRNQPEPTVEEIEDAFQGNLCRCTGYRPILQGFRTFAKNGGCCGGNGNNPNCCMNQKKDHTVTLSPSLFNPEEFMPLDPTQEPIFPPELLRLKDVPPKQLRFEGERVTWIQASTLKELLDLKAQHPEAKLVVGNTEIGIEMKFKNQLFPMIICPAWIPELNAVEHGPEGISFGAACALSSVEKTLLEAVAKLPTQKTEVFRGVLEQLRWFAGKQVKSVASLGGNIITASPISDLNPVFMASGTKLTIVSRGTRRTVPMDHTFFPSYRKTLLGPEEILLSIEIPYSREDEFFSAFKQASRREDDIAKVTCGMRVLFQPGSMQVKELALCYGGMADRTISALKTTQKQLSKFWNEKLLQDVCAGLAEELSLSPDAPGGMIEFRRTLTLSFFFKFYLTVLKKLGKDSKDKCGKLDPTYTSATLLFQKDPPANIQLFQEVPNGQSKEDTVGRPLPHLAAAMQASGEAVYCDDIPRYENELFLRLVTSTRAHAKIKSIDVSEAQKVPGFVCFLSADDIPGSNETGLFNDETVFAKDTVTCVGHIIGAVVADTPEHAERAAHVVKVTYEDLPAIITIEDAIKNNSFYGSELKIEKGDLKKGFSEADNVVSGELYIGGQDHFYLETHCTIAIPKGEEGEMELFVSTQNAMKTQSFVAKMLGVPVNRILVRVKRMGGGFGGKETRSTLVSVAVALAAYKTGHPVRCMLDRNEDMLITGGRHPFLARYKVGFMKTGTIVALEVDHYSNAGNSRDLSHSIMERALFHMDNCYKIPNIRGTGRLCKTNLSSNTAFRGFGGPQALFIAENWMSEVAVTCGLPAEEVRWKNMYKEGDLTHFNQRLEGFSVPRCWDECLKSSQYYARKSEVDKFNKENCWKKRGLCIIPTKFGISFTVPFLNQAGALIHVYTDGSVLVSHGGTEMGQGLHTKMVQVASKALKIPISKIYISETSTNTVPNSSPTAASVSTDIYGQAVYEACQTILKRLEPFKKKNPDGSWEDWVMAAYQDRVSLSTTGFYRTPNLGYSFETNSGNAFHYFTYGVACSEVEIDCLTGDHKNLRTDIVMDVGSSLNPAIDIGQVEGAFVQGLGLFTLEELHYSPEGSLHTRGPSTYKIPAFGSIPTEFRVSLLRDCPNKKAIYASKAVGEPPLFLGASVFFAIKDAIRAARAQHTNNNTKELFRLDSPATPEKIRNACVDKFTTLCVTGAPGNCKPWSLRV
row,IC50,SMILES
1,Not Active,COc1ccc(/N=N/c2cc(C(F)(F)F)cc(C(F)(F)F)c2)ccc1=O
2,Not Active,O=c1ccc(/N=N/c2cccc(Br)c2)ccc1O
3,Not Active,Cc1cc(C)cc(/N=N/c2ccc(O)c(=O)cc2)c1
4,Not Active,O=c1ccc(/N=N/c2ccc(F)cc2)ccc1O
5,Not Active,O=c1ccc(/N=N/c2cccc(I)c2)ccc1O
6,Not Active,Cc1cccc(/N=N/c2ccc(O)c(=O)cc2)c1
7,Not Active,CCOC(=O)c1ccc(/N=N/c2ccc(O)c(=O)cc2)cc1
8,Not Active,Cc1ccc(Br)cc1/N=N/c1ccc(O)c(=O)cc1

# Same assay, conditions: read-out: IC50
row,IC50,SMILES
1,45 µM,COc1cccc(/N=N/c2ccc(O)c(=O)cc2)c1
2,8.9 µM,O=c1ccc(/N=N/c2cccc(F)c2)ccc1O
3,7.4 µM,O=c1ccc(/N=N/c2cccc(C(F)(F)F)c2)ccc1O
4,80 µM,COC(=O)c1cccc(/N=N/c2ccc(O)c(=O)cc2)c1
5,17 µM,O=c1ccc(/N=N/c2cccc(Cl)c2)ccc1O
6,23 µM,Cc1c(/N=N/c2ccc(O)c(=O)cc2)cccc1[N+](=O)[O-]
7,57 µM,COc1cc(/N=N/c2ccc(O)c(=O)cc2)cc(OC)c1OC
